pEC50, pIC50, pKd, pKi: −log10 of the molar value. Residues, ends and D or L forms follow the SMILES beside them.
What was measured:
Zika virus [1] = assay: Antiviral activity against Zika virus Mex2-81 infected in human Jeg-3 cells assessed as reduction in virus-induced toxicity preincubated with cells for 1 hr followed by viral infection and measured 36 hrs post infection; format: functional, organism-based; details: Mex2-81, JEG-3
[2] = Cytotoxicity against human JEG3 cells incubated for 36 hrs by resazurin-dye based Alamar blue assay; format: cell-based; details: JEG-3 cells
[3] = Cytotoxicity against human Neural progenitor cells; format: cell-based
[4] = Cytotoxicity against African green monkey Vero cells; format: cell-based; details: chlorocebus sabaeus
[5] = Inhibition of Protein E in Zika virus FLR infected in BHK21 cells assessed as antiviral activity after 12 hrs by CCK8 assay; format: cell-based; details: BHK-21, 12 h
[6] = Cytotoxicity against BHK21 cells after 24 hrs by CCK8 assay; format: cell-based, Mesocricetus auratus; details: hamster, BHK-21 cells
[7] = Cytotoxicity against human HuH7 cells after 24 hrs by CCK8 assay; format: cell-based; details: Huh-7 cells
[8] = Inhibition of Protein E in Zika virus SZ01 infected in BHK21 cells assessed as antiviral activity after 12 hrs by CCK8 assay; format: cell-based; details: SZ01, BHK-21, 12 h
[9] = Inhibition of Protein E in Zika virus MR766 infected in BHK21 cells assessed as antiviral activity after 12 hrs by CCK8 assay; format: cell-based; details: MR766, BHK-21, 12 h
[10] = Cytotoxicity against African green monkey Vero cells after 24 hrs by CCK8 assay; format: cell-based; details: chlorocebus sabaeus
[11] = Cytotoxicity against African green monkey Vero E6 cells by the MTS method; format: cell-based, Vero C1008; details: chlorocebus sabaeus
[12] = Selectivity ratio of CC50 for African green monkey Vero E6 cells to EC50 for Zika virus MR766 infected in African green monkey Vero E6 cells; format: toxicity, Vero C1008; details: read-out: Ratio CC50/EC50
NS5 [13] = biological target: T1, NS5 (Zika virus, UniProt A0A143MHK7); assay: Inhibition of Zika virus MTase (4 to 278 residues) expressed in Escherichia coli T7 using GpppAC4 as substrate in presence of [3H]SAM incubated for 30 mins by liquid scintillation counter method
NS5 [14] = biological target: T1, NS5; assay: Inhibition of Zika virus MTase (4 to 278 residues) expressed in Escherichia coli T7 using A27 RNA as substrate in presence of [3H]SAM incubated for 30 mins by liquid scintillation counter method
NS5 [15] = biological target: T1, NS5; assay: Inhibition of Zika virus RNA-dependent RNA polymerase using poly(rC)/rG13 as substrate after 45 mins
[16] = Cytotoxicity against golden hamster BHK21 cells by Promega Viral ToxGlo Assay; format: cell-based, Mesocricetus auratus; details: BHK-21 cells
Zika virus [17] = assay: Antiviral activity against Zika virus PLCal_ZV infected in Huh7 cells by Promega Viral ToxGlo Assay; format: functional, organism-based; details: Huh-7
[18] = Cytotoxicity against African green monkey Vero cells incubated for 4 days by luminescence method; format: cell-based; details: chlorocebus sabaeus
Nonstructural protein 3 [19] = biological target: T2, Nonstructural protein 3 (Zika virus, UniProt A0A024AXB9); assay: Inhibition of Zika virus NS2B (1421 to 1469 residues) - NS3 (1503 to 1688 residues) expressed in Escherichia coli BL21(DE3) cells using Dabcyl-KTSAVLQSGFRKME-Edans as substrate after 11 mins by FRET assay
Nonstructural protein 3 [20] = biological target: T2, Nonstructural protein 3; assay: Inhibition of Zika virus Asian/8375 NS2B (48 to 100 residues)-NS3 (14 to 185 residues) expressed in Escherichia coli BL21 (DE3) Star cells preincubated for 30 mins followed by Bz-nKRR-AMC substrate addition
Nonstructural protein 3 [21] = biological target: T2, Nonstructural protein 3; assay: Inhibition of wild type Zika virus NS2B-NS3 protease preincubated for 30 mins followed by Pyr-RTKR-AMC substrate addition
[22] = Half life in SJL mouse infected with Zika virus PA259459 at 10 mg/kg, ip measured up to 2 hr post infection by LC-MS/MS analysis; format: ADME, organism-based; details: in vivo
Zika virus [23] = assay: Antiviral activity against Zika virus PA 259459 infected in SJL mouse assessed as decrease in viral RNA at 30 mg/kg dosed 5 times per day via drinking water for 5 days by RT-PCR relative to control; format: functional
[24] = Cytotoxicity against human Neural progenitor cells after 24 hrs by ATP-Lite assay; format: cell-based
NS5 [25] = biological target: T1, NS5; assay: Binding affinity to Zika virus Methyltransferase
[26] = Cytotoxicity against African green monkey Vero cells by MTT assay; format: cell-based; details: chlorocebus sabaeus
Zika virus [27] = assay: Antiviral activity against Zika virus MR766 infected in African green monkey Vero cells by plaque assay; format: functional, organism-based
[28] = Cytotoxicity against BHK21 cells after 24 to 48 hrs by CCK8 assay; format: cell-based, Mesocricetus auratus; details: hamster, BHK-21 cells
[29] = Cytotoxicity against HEK293 cells; format: cell-based; details: human
[30] = Cytotoxicity against human SNB19 cells; format: cell-based; details: SNB-19 cells

T2 sequence (A0A024AXB9 whole entry, the tested form may be a part): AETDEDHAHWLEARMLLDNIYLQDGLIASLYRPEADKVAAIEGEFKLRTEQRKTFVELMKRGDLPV
T1 sequence (A0A143MHK7 whole entry, the tested form may be a part): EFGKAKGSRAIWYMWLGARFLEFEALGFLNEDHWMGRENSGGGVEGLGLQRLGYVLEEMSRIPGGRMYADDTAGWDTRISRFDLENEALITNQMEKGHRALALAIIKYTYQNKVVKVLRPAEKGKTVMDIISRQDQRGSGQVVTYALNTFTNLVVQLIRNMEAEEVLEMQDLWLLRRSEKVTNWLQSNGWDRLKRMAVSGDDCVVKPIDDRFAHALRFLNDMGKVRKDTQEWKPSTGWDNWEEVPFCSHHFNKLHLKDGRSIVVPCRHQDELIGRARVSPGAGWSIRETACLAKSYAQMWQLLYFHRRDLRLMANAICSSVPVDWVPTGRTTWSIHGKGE

## CO[C@H]1CC[C@@H](O[C@H]2C[C@H]([C@]3(C)CC[C@]4(C[C@H](O)[C@@H](C)[C@@H]([C@@H](C)/C=C(\C)C(=O)[C@H](C)C[C@H](C)C(=O)O)O4)O3)O[C@]3(O[C@@H]([C@H]4O[C@@](O)(CO)[C@H](C)C[C@@H]4C)C[C@@H]3C)[C@@H]2C)O[C@@H]1C
Zika virus [1]
  pEC50: 6.01
[2]
  CC50 at 36 h: 6.1 µM

## CC(C)OC(=O)[C@H](C)N[P@](=O)(OC[C@H]1O[C@@H](n2ccc(=O)[nH]c2=O)[C@](C)(F)[C@@H]1O)Oc1ccccc1 [SOFOSBUVIR]
[3]
  CC50: 360 to 512 µM
[4]
  CC50: 360 to 512 µM

## CC[C@H](C)[C@H](NC(=O)CNC(=O)[C@H](CCCCN)NC(=O)CNC(=O)[C@H](CC(C)C)NC(=O)[C@H](CO)NC(=O)[C@H](CC(N)=O)NC(=O)[C@H](CC(C)C)NC(=O)[C@H](C)NC(=O)CNC(=O)CNC(=O)[C@@H](NC(=O)[C@H](CO)NC(=O)CNC(=O)[C@H](Cc1ccccc1)NC(=O)[C@H](CC(=O)O)NC(=O)[C@H](Cc1c[nH]c2ccccc12)NC(=O)[C@H](C)NC(=O)[C@@H](NC(=O)[C@H](CC(=O)O)NC(=O)CNC(=O)[C@H](CC(C)C)NC(=O)[C@@H](NC(=O)[C@H](C)NC(=O)[C@@H](N)CCSC)C(C)C)[C@@H](C)O)C(C)C)C(=O)N[C@@H](Cc1cnc[nH]1)C(=O)N[C@@H](CCC(N)=O)C(=O)N[C@H](C(=O)N[C@@H](Cc1ccccc1)C(=O)NCC(=O)N[C@@H](C)C(=O)N[C@@H](C)C(=O)N[C@@H](Cc1ccccc1)C(=O)O)[C@@H](C)CC (H-MAVLGDTAWDFGSVGGALNSLGKGIHQIFGAAF-OH)
[5]
  pEC50: 4.86 to 5.76
[6]
  CC50 at 24 h: > 50 µM
[7]
  CC50 at 24 h: > 50 µM
[8]
  pEC50: 4.86 to 5.76
[9]
  pEC50: 4.86 to 5.76
[10]
  CC50 at 24 h: > 50 µM

## C#C[C@@]1(O)[C@H](O)[C@@H](CO)O[C@H]1n1ccc2c(N)ncnc21
[4]
  CC50: > 50 µM

## CCCCCOCc1c(Nc2ccc(S(N)(=O)=O)cc2)nc(N2CCOCC2)nc1C(=O)NCCOc1ccccc1
[11]
  CC50: > 83.5 µM
[12]
  selectivity ratio: > 41

## Nc1ncnc2c1ncn2[C@@H]1O[C@H](C[C@@H](N)CC[C@H](N)C(=O)O)[C@@H](O)[C@H]1O [SINEFUNGIN]
NS5 [13]
  pIC50: 5.93
NS5 [14]
  pIC50: 5.79

## [N-]=[N+]=NCc1cnc(C(=O)NO)c(O)c1CO
NS5 [15]
  pIC50: 5.28
[16]
  CC50: 22 µM
Zika virus [17]
  pEC50: 5.34

## O=C(NC(=S)Nc1ccc(N2CCN(C(=O)c3cccs3)CC2)cc1)c1sc2ccccc2c1Cl
[18]
  CC50 at 96 h: 19.4 µM

## O=C(O[C@@H]1Cc2c(O)cc(O)cc2O[C@@H]1c1cc(O)c(O)c(O)c1)c1cc(O)c(O)c(O)c1 [EPIGALOCATECHIN GALLATE]
Nonstructural protein 3 [19]
  pIC50: 4.06

## O=c1c(O)c(-c2cc(O)c(O)c(O)c2)oc2cc(O)cc(O)c12 [MYRICETIN]
Nonstructural protein 3 [19]
  pIC50: 4.66
Nonstructural protein 3 [20]
  pIC50: 5.89
  pKi: 6.10

## Clc1nc2n[nH]nc2nc1Cl
Nonstructural protein 3 [21]
  pIC50: 6.09
[22]
  half-life: 20 min
Zika virus [23]
  fold change (FC): 10
[24]
  CC50 at 24 h: > 50 µM

## Nc1ncnc2c1ncn2[C@@H]1O[C@H](CN(CC[C@H](N)C(=O)O)Cc2ccc(F)cc2)[C@@H](O)[C@H]1O
NS5 [25]
  pKd: 4.61

## CC(C)C[C@H]1C(=O)N2CCC[C@H]2[C@]2(O)O[C@](NC(=O)[C@@H]3C=C4c5cccc6[nH]c(Br)c(c56)C[C@H]4N(C)C3)(C(C)C)C(=O)N12 [BROMOCRIPTINE]
[26]
  CC50: > 40 µM

## CC(C)(C)NCc1ccc(Nc2ccnc3cc(Cl)ccc23)cc1O [GSK-369796]
Zika virus [27]
  pEC50: 5.59
[28]
  CC50: 98 µM

## O[C@@H](c1cc(C(F)(F)F)nc2c(C(F)(F)F)cccc12)[C@H]1CCCCN1 [(S,R)-MEFLOQUINE]
Zika virus [27]
  pEC50: 5.40
[28]
  CC50: 20.4 µM

## CC[C@H]1CN2CCc3cc(OC)c(OC)cc3[C@@H]2C[C@@H]1C[C@H]1NCCc2cc(OC)c(OC)cc21 [EMETINE]
[29]
  CC50: 0.18 µM
[30]
  CC50: 0.086 µM

## O=C(O[C@@H]1Cc2c(O)cc(O)cc2O[C@H]1c1cc(O)c(O)c(O)c1)c1cc(O)c(O)c(O)c1 [GALLOCATECHIN GALLATE]
Nonstructural protein 3 [19]
  pIC50: 4.00

Source: ChEMBL document CHEMBL4354808, “Drugs for the Treatment of Zika Virus Infection” (J Med Chem, 2020)
